From ChEMBL document CHEMBL4350988, “Development of selective small molecule MDM2 degraders based on nutlin” (Eur J Med Chem, 2019)
Active and inactive are the calls of the source. The rule behind the calls is not given here.

How the values were obtained:
RS4-11 [1] = test: Antiproliferative activity against human RS4:11 cells assessed as reduction in cell viability at 100 nM after 48 hrs by MTT assay; type: functional, cell-based
RS4-11 [2] = test: Antiproliferative activity against human RS4:11 cells assessed as reduction in cell viability after 48 hrs by MTT assay; type: functional, cell-based; details: RS4-11, 48 h
[3] = target: T1, Protein cereblon/E3 ubiquitin-protein ligase Mdm2 (Homo sapiens, UniProt Q00987+Q96SW2); test: Protac activity at CRBN/MDM2 in human RS4:11 cells assessed as increase in degradation of MDM2 at 10 to 100 nM measured after 12 hrs by Western blot analysis; type: cell-based
Target sequence in this assay (Q00987 whole entry, looked up): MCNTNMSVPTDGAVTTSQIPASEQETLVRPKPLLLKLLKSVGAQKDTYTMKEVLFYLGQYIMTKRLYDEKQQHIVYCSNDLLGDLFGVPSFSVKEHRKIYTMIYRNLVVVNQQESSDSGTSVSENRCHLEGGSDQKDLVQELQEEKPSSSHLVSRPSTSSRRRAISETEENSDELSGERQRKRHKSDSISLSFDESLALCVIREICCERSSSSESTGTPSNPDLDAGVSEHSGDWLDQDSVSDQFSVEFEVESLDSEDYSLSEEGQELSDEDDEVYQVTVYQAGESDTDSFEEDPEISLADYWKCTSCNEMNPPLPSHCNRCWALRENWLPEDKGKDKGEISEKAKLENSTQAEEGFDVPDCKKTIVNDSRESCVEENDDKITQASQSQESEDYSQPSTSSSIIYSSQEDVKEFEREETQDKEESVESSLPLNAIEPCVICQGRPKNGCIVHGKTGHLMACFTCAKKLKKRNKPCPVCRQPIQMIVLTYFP
Target sequence in this assay (Q96SW2 whole entry, looked up): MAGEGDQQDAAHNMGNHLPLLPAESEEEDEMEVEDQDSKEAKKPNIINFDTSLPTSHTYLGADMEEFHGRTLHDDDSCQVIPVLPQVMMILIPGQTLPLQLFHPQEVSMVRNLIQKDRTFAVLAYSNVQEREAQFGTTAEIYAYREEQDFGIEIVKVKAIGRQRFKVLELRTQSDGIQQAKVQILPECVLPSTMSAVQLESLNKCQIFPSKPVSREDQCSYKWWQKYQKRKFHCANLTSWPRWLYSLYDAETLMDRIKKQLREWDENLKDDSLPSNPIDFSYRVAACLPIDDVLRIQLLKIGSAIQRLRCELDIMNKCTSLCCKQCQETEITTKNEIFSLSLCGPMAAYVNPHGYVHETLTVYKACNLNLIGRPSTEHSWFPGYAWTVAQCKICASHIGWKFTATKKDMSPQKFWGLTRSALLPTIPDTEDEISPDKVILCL

[4] = target: T1, Protein cereblon/E3 ubiquitin-protein ligase Mdm2; test: Protac activity at CRBN/MDM2 in human RS4:11 cells assessed as increase in degradation of MDM2 at 100 nM by Western blot analysis; type: cell-based
Target sequence in this assay (Q00987 whole entry, looked up): as the sequence (Q00987 whole entry, looked up) above
Target sequence in this assay (Q96SW2 whole entry, looked up): as the sequence (Q96SW2 whole entry, looked up) above

[5] = target: T1, Protein cereblon/E3 ubiquitin-protein ligase Mdm2; test: Protac activity at CRBN/MDM2 in human RS4:11 cells assessed as increase in accumulation of p53 at 100 nM by Western blot analysis; type: cell-based
Target sequence in this assay (Q00987 whole entry, looked up): as the sequence (Q00987 whole entry, looked up) above
Target sequence in this assay (Q96SW2 whole entry, looked up): as the sequence (Q96SW2 whole entry, looked up) above

[6] = target: T1, Protein cereblon/E3 ubiquitin-protein ligase Mdm2; test: Protac activity at CRBN/MDM2 in human RS4:11 cells assessed as increase in degradation of MDM2 by Western blot analysis; type: cell-based; details: TDE = time-dependent effect
Target sequence in this assay (Q00987 whole entry, looked up): as the sequence (Q00987 whole entry, looked up) above
Target sequence in this assay (Q96SW2 whole entry, looked up): as the sequence (Q96SW2 whole entry, looked up) above

[7] = target: T1, Protein cereblon/E3 ubiquitin-protein ligase Mdm2; test: Protac activity at CRBN/MDM2 in human RS4:11 cells assessed as maximal MDM2 degradation level at 100 nM after 24 hrs by Western blot analysis relative to control; type: cell-based
Target sequence in this assay (Q00987 whole entry, looked up): as the sequence (Q00987 whole entry, looked up) above
Target sequence in this assay (Q96SW2 whole entry, looked up): as the sequence (Q96SW2 whole entry, looked up) above

[8] = target: T1, Protein cereblon/E3 ubiquitin-protein ligase Mdm2; test: Protac activity at CRBN/MDM2 in human RS4:11 cells assessed as MDM2 degradation by Western blot analysis; type: cell-based
[9] = target: T1, Protein cereblon/E3 ubiquitin-protein ligase Mdm2; test: Protac activity at CRBN/MDM2 in human RS4:11 cells assessed as reduction in MDM2 degradation at 100 nM preincubated with ((4S,5R)-2-(4-(tert-butyl)-2-ethoxyphenyl)-4,5-bis(4-chlorophenyl)-4,5-dihydro-1H-imidazol-1-yl)(piperazin-1-yl)methanone for 2 hrs followed by compound addition measured after 4 hrs by Western blot analysis; type: cell-based
Target sequence in this assay (Q00987 whole entry, looked up): as the sequence (Q00987 whole entry, looked up) above
Target sequence in this assay (Q96SW2 whole entry, looked up): as the sequence (Q96SW2 whole entry, looked up) above

[10] = target: T1, Protein cereblon/E3 ubiquitin-protein ligase Mdm2; test: Protac activity at CRBN/MDM2 in human RS4:11 cells assessed as reduction in MDM2 degradation at 100 nM preincubated with lenalidomide for 2 hrs followed by compound addition measured after 4 hrs by Western blot analysis; type: cell-based
[11] = target: T1, Protein cereblon/E3 ubiquitin-protein ligase Mdm2; test: Protac activity at CRBN/MDM2 in human RS4:11 cells assessed as MDM2 degradation at 100 nM preincubated with proteasome inhibitior MG132 for 2 hrs followed by compound addition measured after 4 hrs by Western blot analysis; type: cell-based
[12] = target: T1, Protein cereblon/E3 ubiquitin-protein ligase Mdm2; test: Protac activity at CRBN/MDM2 in human RS4:11 cells assessed as upregulation of MDM2 expression at 100 nM measured after 6 hrs by qRT-PCR method; type: cell-based
[13] = target: T1, Protein cereblon/E3 ubiquitin-protein ligase Mdm2; test: Protac activity at CRBN/MDM2 in human RS4:11 cells assessed as upregulation of P21 expression at 100 nM measured after 6 hrs by qRT-PCR method; type: cell-based
[14] = target: T1, Protein cereblon/E3 ubiquitin-protein ligase Mdm2; test: Protac activity at CRBN/MDM2 in human RS4:11 cells assessed as effect on TP53 expression at 30 to 100 nM measured after 6 hrs by qRT-PCR method; type: cell-based
[15] = target: T1, Protein cereblon/E3 ubiquitin-protein ligase Mdm2; test: Protac activity at CRBN/MDM2 in human RS4:11 cells assessed as degradation of MDM2 at 100 nM to 1 uM by Westernblot analysis; type: cell-based
[16] = target: T1, Protein cereblon/E3 ubiquitin-protein ligase Mdm2; test: Protac activity at CRBN/MDM2 in human RS4:11 cells assessed as upregulation of P53 expression at 100 nM to 1 uM by Westernblot analysis; type: cell-based
[17] = target: T1, Protein cereblon/E3 ubiquitin-protein ligase Mdm2; test: Protac activity at CRBN/MDM2 in human RS4:11 cells assessed as increase in P21 expression at 100 nM to 1 uM by Westernblot analysis; type: cell-based
RS4-11 [18] = test: Induction of apoptosis in human RS4:11 cells assessed as PARP cleavage at 100 nM to 1 uM by Westernblot analysis; type: functional, cell-based
RS4-11 [19] = test: Induction of apoptosis in human RS4:11 cells assessed as caspase3 expression at 100 nM to 1 uM by Westernblot analysis; type: functional, cell-based
RS4-11 [20] = test: Induction of apoptosis in human RS4:11 cells assessed as viable cells at 10 nM after 24 hrs by Annexin-V-FITC/propidium iodide staining based flow cytometry relative to control; type: functional; details: RS4-11, 24 h, read-out: Activity
RS4-11 [21] = test: Induction of apoptosis in human RS4:11 cells assessed as early apoptotic cells at 10 nM after 24 hrs by Annexin-V-FITC/propidium iodide staining based flow cytometry relative to control; type: functional
RS4-11 [22] = test: Induction of apoptosis in human RS4:11 cells assessed as late apoptotic cells at 10 nM after 24 hrs by Annexin-V-FITC/propidium iodide staining based flow cytometry relative to control; type: functional
RS4-11 [23] = test: Induction of apoptosis in human RS4:11 cells assessed as necrotic cells at 10 nM after 24 hrs by Annexin-V-FITC/propidium iodide staining based flow cytometry relative to control; type: functional
RS4-11 [24] = test: Induction of apoptosis in human RS4:11 cells assessed as viable cells at 100 nM after 24 hrs by Annexin-V-FITC/propidium iodide staining based flow cytometry relative to control; type: functional; details: RS4-11, 24 h, read-out: Activity
RS4-11 [25] = test: Induction of apoptosis in human RS4:11 cells assessed as early apoptotic cells at 100 nM after 24 hrs by Annexin-V-FITC/propidium iodide staining based flow cytometry relative to control; type: functional
RS4-11 [26] = test: Induction of apoptosis in human RS4:11 cells assessed as late apoptotic cells at 100 nM after 24 hrs by Annexin-V-FITC/propidium iodide staining based flow cytometry relative to control; type: functional
RS4-11 [27] = test: Induction of apoptosis in human RS4:11 cells assessed as necrotic cells at 100 nM after 24 hrs by Annexin-V-FITC/propidium iodide staining based flow cytometry relative to control; type: functional
RS4-11 [28] = test: Induction of apoptosis in human RS4:11 cells assessed as viable cells at 1000 nM after 24 hrs by Annexin-V-FITC/propidium iodide staining based flow cytometry relative to control; type: functional; details: RS4-11, 24 h, read-out: Activity
RS4-11 [29] = test: Induction of apoptosis in human RS4:11 cells assessed as early apoptotic cells at 1000 nM after 24 hrs by Annexin-V-FITC/propidium iodide staining based flow cytometry relative to control; type: functional
RS4-11 [30] = test: Induction of apoptosis in human RS4:11 cells assessed as late apoptotic cells at 1000 nM after 24 hrs by Annexin-V-FITC/propidium iodide staining based flow cytometry relative to control; type: functional
RS4-11 [31] = test: Induction of apoptosis in human RS4:11 cells assessed as necrotic cells at 1000 nM after 24 hrs by Annexin-V-FITC/propidium iodide staining based flow cytometry relative to control; type: functional
[32] = target: T1, Protein cereblon/E3 ubiquitin-protein ligase Mdm2; test: Protac activity at CRBN/MDM2 in human RS4:11 cells assessed as PARP cleavage after 6 hrs by Western blot analysis; type: cell-based
[33] = target: T1, Protein cereblon/E3 ubiquitin-protein ligase Mdm2; test: Protac activity at CRBN/MDM2 in human RS4:11 cells assessed MDM2 degradation at 10 to 100 nM measured after 1 hr by immunoblot analysis; type: cell-based
RS4-11 [34] = test: Induction of apoptosis in human RS4:11 cells by Annexin-V-FITC/propidium iodide staining based flow cytometry relative to control; type: functional, cell-based
[35] = target: T1, Protein cereblon/E3 ubiquitin-protein ligase Mdm2; test: Protac activity at CRBN/MDM2 in human RS4:11 cells assessed as upregulation of MDM2 expression at 1 uM measured after 6 hrs by qRT-PCR method; type: cell-based
[36] = target: T1, Protein cereblon/E3 ubiquitin-protein ligase Mdm2; test: Protac activity at CRBN/MDM2 in human RS4:11 cells assessed as upregulation of P21 expression at 1 uM measured after 6 hrs by qRT-PCR method; type: cell-based
[37] = target: T1, Protein cereblon/E3 ubiquitin-protein ligase Mdm2; test: Protac activity at CRBN/MDM2 in human RS4:11 cells assessed as effect on TP53 expression at 1 uM measured after 6 hrs by qRT-PCR method; type: cell-based

With `CCOc1cc(C(C)(C)C)ccc1C1=N[C@@H](c2ccc(Cl)cc2)[C@@H](c2ccc(Cl)cc2)N1C(=O)N1CCN(CCCC#Cc2cccc3c2CN(C2CCC(=O)NC2=O)C3=O)CC1` (some centres undefined) as the molecule, how does the Activity (RS4-11 [1]) read?
The Activity was “Active”.

What does the source list for `CCOc1cc(C(C)(C)C)ccc1C1=NC(c2ccc(Cl)cc2)C(c2ccc(Cl)cc2)N1C(=O)N1CCN(CC#Cc2cccc3c2CN(C2CCC(=O)NC2=O)C3=O)CC1` (racemic)?
IC50 (RS4-11 [2]): 7.2 nM; Activity (RS4-11 [1]): Active; Activity [3]: Active; Activity [4]: Active; Activity [5]: Active

Which Activity [3] does the source give for `CCOc1cc(C(C)(C)C)ccc1C1=N[C@@H](c2ccc(Cl)cc2)[C@@H](c2ccc(Cl)cc2)N1C(=O)N1CCN(C(=O)CCC#Cc2cccc3c2CN(C2CCC(=O)NC2=O)C3=O)CC1` (some centres undefined) here?
The Activity was “Active”.

How did the IC50 (RS4-11 [2]) turn out when `CCOc1cc(C(C)(C)C)ccc1C1=N[C@@H](c2ccc(Cl)cc2)[C@@H](c2ccc(Cl)cc2)N1C(=O)N1CCN(CC#Cc2cccc3c2CN(C2CCC(=O)NC2=O)C3=O)CC1` (some centres undefined) was run?
The IC50 was 3.2 nM.

And the Activity (RS4-11 [1])?
Its Activity is “Active”.

What about the Activity [3] of the same molecule?
The Activity was “Active”.

And the Activity [4]?
Its Activity is “Active”.

And the Activity [5]?
The Activity was “Active”.

And the Activity [6]?
Its Activity is “Tde”.

And the Emax [7]?
The Emax was 90%.

What about the Activity [8] of the same molecule?
The Activity was “Dose-dependent effect”.

What about the DC50 [8] of the same molecule?
Its DC50 is 23 nM.

And the Activity [9]?
The Activity was “Active”.

And the Activity [10]?
Its Activity is “Active”.

What about the Activity [11] of the same molecule?
Its Activity is “Active”.

And the Activity [12]?
The Activity was “Active”.

What about the Activity [13] of the same molecule?
Its Activity is “Active”.

What about the Activity [14] of the same molecule?
The Activity was “inactive”.

What about the Activity [15] of the same molecule?
Its Activity is “Active”.

And the Activity [16]?
The Activity was “Active”.

What about the Activity [17] of the same molecule?
Its Activity is “Active”.

And the Activity (RS4-11 [18])?
The Activity was “Active”.

What about the Activity (RS4-11 [19]) of the same molecule?
The Activity was “Active”.

What about the viability at 0.01 µM (RS4-11 [20]) of the same molecule?
The viability at 0.01 µM was 79.2%.

What about the Activity (RS4-11 [21]) of the same molecule?
The Activity was 10.5%.

And the Activity (RS4-11 [22])?
The Activity was 10.1%.

And the Activity (RS4-11 [23])?
Its Activity is 0.2%.

And the viability at 0.1 µM (RS4-11 [24])?
The viability at 0.1 µM was 26%.

And the Activity (RS4-11 [25])?
The Activity was 22.3%.

And the Activity (RS4-11 [26])?
The Activity was 51.6%.

What about the Activity (RS4-11 [27]) of the same molecule?
The Activity was 0.1%.

And the viability at 1 µM (RS4-11 [28])?
Its viability at 1 µM is 28.8%.

And the Activity (RS4-11 [29])?
Its Activity is 27.1%.

And the Activity (RS4-11 [30])?
The Activity was 43.9%.

And the Activity (RS4-11 [31])?
The Activity was 0.27%.

What about the Activity [32] of the same molecule?
The Activity was “Active”.

And the Activity [33]?
The Activity was “Active”.

And the Activity (RS4-11 [34])?
The Activity was “Dose-dependent effect”.

Which Activity [3] does the source give for `CCOc1cc(C(C)(C)C)ccc1C1=N[C@H](c2ccc(Cl)cc2)[C@H](c2ccc(Cl)cc2)N1C(=O)N1CCN(C(=O)CNC(=O)CCCC#Cc2cccc3c2CN(C2CCC(=O)NC2=O)C3=O)CC1` (some centres undefined) here?
Its Activity is “Active”.

What does the source list for `CCOc1cc(C(C)(C)C)ccc1C1=N[C@@H](c2ccc(Cl)cc2)[C@@H](c2ccc(Cl)cc2)N1C(=O)N1CCNCC1`?
Activity [35]: Active; Activity [36]: Active; Activity [37]: inactive; viability at 0.01 µM (RS4-11 [20]): 84.2%; Activity (RS4-11 [21]): 10.5%; Activity (RS4-11 [22]): 5.37%; Activity (RS4-11 [23]): 0.00582%; viability at 0.1 µM (RS4-11 [24]): 84.4%; Activity (RS4-11 [25]): 10.1%; Activity (RS4-11 [26]): 5.45%; Activity (RS4-11 [27]): 0%; viability at 1 µM (RS4-11 [28]): 69.5%; Activity (RS4-11 [29]): 13.7%; Activity (RS4-11 [30]): 16.3%; Activity (RS4-11 [31]): 0.46%

How did the Activity (RS4-11 [1]) turn out when `CCOc1cc(C(C)(C)C)ccc1C1=N[C@@H](c2ccc(Cl)cc2)[C@@H](c2ccc(Cl)cc2)N1C(=O)N1CCN(CCC#Cc2cccc3c2CN(C2CCC(=O)NC2=O)C3=O)CC1` (some centres undefined) was run?
The Activity was “Active”.
